For 51 compounds, IC50 results are on record in patent US10640495B2, “Heterocycle derivatives having TrkA inhibitory activity” (Shionogi & Co., Ltd., priority 2015, dated 2020).

Read-outs that look alike come from different tables or passages of the source. Some results are limits rather than exact numbers.

The target in this assay is human TrkA (Homo sapiens (Human), UniProt P04629). Nature of the assay: Human TrkA inhibition assay (Test Example 2). Type of assay: biochemical. In short, it runs like this:
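Mobility-shift readout of phosphorylated versus unphosphorylated fluorescent peptide gave conversion ratio, normalized to DMSO and no-enzyme wells; IC50 by logistic fit of 10- or 15-point 3-fold dilutions. Conditions: 1 nmol/L enzyme, 15 min compound preincubation, then 500 μmol/L ATP plus 1.5 μmol/L peptide, 120 min, 37 °C.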

The mark [1] stands for this setting: Table 152, human TrkA inhibition, read-out: IC50_nM.
[2] abbreviates: human TrkA 1 nmol/L, ATP 500 μmol/L, 120 min at 37° C., read-out: IC50 values (TrkA phosphorylation inhibition).
The mark [3] stands for this setting: Table 153, human TrkA inhibition, read-out: IC50.
Setting [4] is: Table 154, human TrkA inhibition, read-out: IC50.

Sequence of human TrkA (P04629 440-796): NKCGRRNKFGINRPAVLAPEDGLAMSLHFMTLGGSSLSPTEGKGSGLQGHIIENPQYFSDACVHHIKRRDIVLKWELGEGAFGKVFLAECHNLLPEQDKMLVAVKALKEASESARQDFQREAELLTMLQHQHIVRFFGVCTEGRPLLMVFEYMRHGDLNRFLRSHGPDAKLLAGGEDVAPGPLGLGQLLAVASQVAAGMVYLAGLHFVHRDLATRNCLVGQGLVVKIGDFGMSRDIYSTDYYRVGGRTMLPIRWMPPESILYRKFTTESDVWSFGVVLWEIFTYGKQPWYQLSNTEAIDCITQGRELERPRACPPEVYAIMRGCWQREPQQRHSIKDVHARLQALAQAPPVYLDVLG

As for `COCCC1C[C@@H](NC(=O)Nc2c(C)c(C3=CCN(C(=O)OC(C)(C)C)CC3)nn2-c2ccccc2)[C@H](c2ccccc2)O1` (stereo partly drawn) [Compound I-20], the IC50 under setting [1] is less than 100 nM.

For the compound `COCCC1C[C@@H](NC(=O)Nc2c(C)c(C3=CCNCC3)nn2-c2ccccc2)[C@H](c2ccccc2)O1` (stereo partly drawn) [Compound I-21], the IC50 under setting [1] is less than 100 nM.

Consider `COCC[C@H]1C[C@H](NC(=O)Nc2c(C)c(-c3cnn(C)c3)nn2-c2ccccc2)[C@@H](c2ccc(F)c(F)c2)O1` [Compound I-24], for which the IC50 under setting [1] is more than 1000 nM.

On to `COCC[C@@H]1C[C@@H](NC(=O)Nc2c(C)c(-c3cnn(C)c3)nn2-c2ccccc2)[C@H](c2ccc(F)c(F)c2)O1` [Compound I-25], for which the IC50 under setting [2] is 2.9 nM.

`COCCN1C[C@H](NC(=O)Nc2c(C)c(C3=CCN(C(C)=O)CC3)nn2-c2ccccc2)[C@@H](c2ccc(F)c(F)c2)O1` [Compound I-38]: the IC50 under setting [1] is more than 1000 nM.

For `COCCN1C[C@@H](NC(=O)Nc2c(C)c(C3=CCN(C(C)=O)CC3)nn2-c2ccccc2)[C@H](c2ccc(F)c(F)c2)O1` [Compound I-39], the IC50 under setting [2] came to 0.48 nM.

As to `COCC[C@H]1C[C@H](NC(=O)Nc2c(C)c(C3=CCN(C(=O)CO)CC3)nn2-c2ccccc2)[C@@H](c2ccc(F)c(F)c2)O1` [Compound I-58], the IC50 under setting [3] lay within 100 to 1000 nM.

In the case of `COCC[C@@H]1C[C@@H](NC(=O)Nc2c(C)c(C3=CCN(C(=O)CO)CC3)nn2-c2ccccc2)[C@H](c2ccc(F)c(F)c2)O1` [Compound I-59], the IC50 under setting [3] is less than 100 nM.

For `COCCN1C[C@@H](NC(=O)Nc2c(C)c(-c3cnc4c(cnn4C)c3)nn2-c2ccccc2)[C@H](c2ccnc(F)c2)O1` [Compound I-65], the IC50 under setting [2] was found to be 0.92 nM.

With `COCCN1C[C@@H](NC(=O)Nc2c(C)c(OCC(C)(C)O)nn2-c2ccccc2)[C@H](c2cnc(F)c(F)c2)O1` [Compound I-82], the IC50 under setting [2] was determined as 22 nM.

With `COCCN1C[C@H](NC(=O)Nc2c(C)c(OCC(C)(C)O)nn2-c2ccccc2)[C@@H](c2cnc(F)c(F)c2)O1` [Compound I-83], under setting [3], the IC50 is more than 1000 nM.

`COCCC1C[C@@H](NC(=O)Nc2c(C)c(-c3cnc4c(cnn4C)c3)nn2-c2ccccc2)[C@H](c2ccccc2)O1` (stereo partly drawn) [Compound I-98]: the IC50 under setting [3] was less than 100 nM.

In the case of `COCCN1C[C@@H](NC(=O)Nc2c(C)c(-c3cnc(OC)c(C(=O)N[C@@H]4CCOC4)c3)nn2-c2ccccc2)[C@H](c2ccnc(F)c2)O1` [Compound I-113], the IC50 under setting [3] is less than 100 nM.

As for `COCCN1C[C@@H](NC(=O)Nc2c(C)c(-c3cnc4c(c3)c(CO)nn4C)nn2-c2ccccc2)[C@H](c2cnc(F)c(F)c2)O1` [Compound I-128], the IC50 under setting [3] is less than 100 nM.

Regarding `CCOc1ncc(-c2nn(-c3ccccc3)c(NC(=O)N[C@H]3CN(CCOC)O[C@@H]3c3ccnc(F)c3)c2C)cn1` [Compound I-130], the IC50 under setting [3] was more than 1000 nM.

`COCCN1C[C@@H](NC(=O)Nc2c(C)c(-c3cnc(N(C)C)nc3)nn2-c2ccccc2)[C@H](c2cnc(F)c(F)c2)O1` [Compound I-133]: the IC50 under setting [3] was less than 100 nM.

Regarding `CNc1ncc(-c2nn(-c3ccccc3)c(NC(=O)N[C@@H]3CN(CCOC)O[C@H]3c3cnc(F)c(F)c3)c2C)cn1` [Compound I-135], under setting [2], the IC50 stood at 0.52 nM.

Regarding `COCCN1C[C@@H](NC(=O)Nc2c(C)c(-c3cnc(C(=O)N[C@@H]4CCOC4)c(C)c3)nn2-c2ccccc2)[C@H](c2ccnc(F)c2)O1` [Compound I-172], the IC50 under setting [3] is less than 100 nM.

`COCCN1C[C@@H](NC(=O)Nc2c(C)c(-c3cnc(OC)c(C(N)=O)c3)nn2-c2ccccc2)[C@H](c2cnc(F)c(F)c2)O1` [Compound I-180]: the IC50 under setting [4] is less than 100 nM.

Turning to `COCCN1C[C@@H](NC(=O)Nc2c(C)c(-c3ccc(N=S(C)(C)=O)nc3)nn2-c2ccccc2)[C@H](c2ccc(F)c(F)c2)O1` [Compound I-186], under setting [4], the IC50 is less than 100 nM.

As to `CNC(=O)c1cc(-c2nn(-c3ccccc3)c(NC(=O)N[C@@H]3CN(CCOC)O[C@H]3c3ccnc(F)c3)c2C)cnc1OC` [Compound I-191], the IC50 under setting [4] is less than 100 nM.

On to `COCCN1C[C@@H](NC(=O)Nc2c(C)c(-c3cnc(OC)c(C(=O)N[C@@H]4CCOC4)c3)nn2-c2ccccc2)[C@H](c2ccnc(F)c2)O1` [Compound I-192], for which the IC50 under setting [4] is less than 100 nM.

Turning to `COCCN1C[C@@H](NC(=O)Nc2c(C)c(-c3ccnc(C(=O)OC)c3)nn2-c2ccccc2)[C@H](c2cnc(F)c(F)c2)O1` [Compound I-197], the IC50 under setting [4] is less than 100 nM.

On to `COCCN1C[C@@H](NC(=O)Nc2c(C)c(-c3cnc(N4CC(O)C4)nc3)nn2-c2ccccc2)[C@H](c2ccc(F)c(F)c2)O1` [Compound I-209], for which the IC50 under setting [4] was less than 100 nM.

Consider `COCCN1C[C@@H](NC(=O)Nc2c(C)c(-c3cnc(N4CC(O)C4)nc3)nn2-c2ccccc2)[C@H](c2cnc(F)c(F)c2)O1` [Compound I-210], for which the IC50 under setting [4] was less than 100 nM.

For the compound `COCCN1C[C@@H](NC(=O)Nc2c(C)c(-c3cnc(OC)nc3)nn2-c2ccccc2)[C@H](c2cnc(F)c(F)c2)O1` [Compound I-211], the IC50 under setting [2] was found to be 1.5 nM.

Take `COCCN1C[C@@H](NC(=O)Nc2c(C)c(-c3ccnc(C(=O)O)c3)nn2-c2ccccc2)[C@H](c2cnc(F)c(F)c2)O1` [Compound I-213]: the IC50 under setting [4] is less than 100 nM.

In the case of `COCCN1C[C@@H](NC(=O)Nc2c(C)c(-c3cnc4c(c3)c(=O)n(C)n4C)nn2-c2ccccc2)[C@H](c2ccc(F)c(F)c2)O1` [Compound I-216], the IC50 under setting [4] was less than 100 nM.

`COCCN1C[C@@H](NC(=O)Nc2c(C)c(-c3cnc4c(c3)[nH]c(=O)n4C)nn2-c2ccccc2)[C@H](c2ccc(F)c(F)c2)O1` [Compound I-218]: under setting [4], the IC50 was less than 100 nM.

Regarding `COCCN1C[C@@H](NC(=O)Nc2c(C)c(-c3cnc4c(c3)nc(C(N)=O)n4C)nn2-c2ccccc2)[C@H](c2ccc(F)c(F)c2)O1` [Compound I-221], under setting [4], the IC50 was less than 100 nM.

`COCCN1C[C@@H](NC(=O)Nc2c(C)c(-c3cnc4c(c3)nc(C#N)n4C)nn2-c2ccccc2)[C@H](c2ccc(F)c(F)c2)O1` [Compound I-222]: the IC50 under setting [4] is less than 100 nM.

With `COCCN1C[C@@H](NC(=O)Nc2c(C)c(-c3ccc(N=S(C)(C)=O)cc3)nn2-c2ccccc2)[C@H](c2ccc(F)c(F)c2)O1` [Compound I-227], the IC50 under setting [4] was less than 100 nM.

Regarding `COCCN1C[C@@H](NC(=O)Nc2c(C)c(-c3cnc4c(ccc(=O)n4C)c3)nn2-c2ccccc2)[C@H](c2ccc(F)c(F)c2)O1` [Compound I-229], the IC50 under setting [4] is less than 100 nM.

In the case of `COCCN1C[C@@H](NC(=O)Nc2c(C)c(-c3ccnc(C(=O)NO)c3)nn2-c2ccccc2)[C@H](c2cnc(F)c(F)c2)O1` [Compound I-231], the IC50 under setting [4] is less than 100 nM.

Turning to `COCCN1C[C@@H](NC(=O)Nc2c(C)c(-c3ccnc(C(=O)NOC)c3)nn2-c2ccccc2)[C@H](c2cnc(F)c(F)c2)O1` [Compound I-233], under setting [2], the IC50 was determined as 1.5 nM.

Turning to `COCC[C@@H]1C[C@@H](NC(=O)Nc2c(C)c(-c3cnn(C)c3)nn2-c2ccccc2)[C@H](c2ccnc(F)c2)O1` [Compound I-235], the IC50 under setting [4] is less than 100 nM.

As to `COCC[C@@H]1C[C@@H](NC(=O)Nc2c(C)c(-c3cnc4c(cnn4C)c3)nn2-c2ccccc2)[C@H](c2ccnc(F)c2)O1` [Compound I-236], the IC50 under setting [2] turned out to be 1.4 nM.

Regarding `COCC[C@@H]1C[C@@H](NC(=O)Nc2c(C)c(-c3cnc(C)nc3)nn2-c2ccccc2)[C@H](c2ccnc(F)c2)O1` [Compound I-237], the IC50 under setting [2] was determined as 8.1 nM.

As to `COCCN1C[C@@H](NC(=O)Nc2c(C)c(-c3cnn(C)c3)nn2-c2ccccc2)[C@H](c2cnc(F)c(F)c2)O1` [Compound I-245], the IC50 under setting [2] amounted to 3 nM.

For the compound `COCC[C@@H]1C[C@@H](NC(=O)Nc2c(C)c(-c3cnc(Cl)nc3)nn2-c2ccccc2)[C@H](c2ccnc(F)c2)O1` [Compound I-248], the IC50 under setting [4] was less than 100 nM.

On to `COCC[C@@H]1C[C@@H](NC(=O)Nc2c(C)c(-c3cc(C(=O)OC)c(=O)n(C)c3)nn2-c2ccccc2)[C@H](c2ccnc(F)c2)O1` [Compound I-251], for which the IC50 under setting [4] was less than 100 nM.

Turning to `COCCN1C[C@@H](NC(=O)Nc2c(C)c(-c3cnc(C(N)=O)c(C)c3)nn2-c2ccccc2)[C@H](c2cnc(F)c(F)c2)O1` [Compound I-252], the IC50 under setting [4] is less than 100 nM.

Regarding `CNC(=O)c1ncc(-c2nn(-c3ccccc3)c(NC(=O)N[C@@H]3CN(CCOC)O[C@H]3c3cnc(F)c(F)c3)c2C)cc1C` [Compound I-253], the IC50 under setting [2] turned out to be 1.3 nM.

With `COCCN1C[C@@H](NC(=O)Nc2c(C)c(-c3cnc(C(=O)NC4CC4)c(C)c3)nn2-c2ccccc2)[C@H](c2cnc(F)c(F)c2)O1` [Compound I-254], the IC50 under setting [4] is less than 100 nM.

On to `COCCN1C[C@@H](NC(=O)Nc2c(C)c(-c3cnc4c(c3)[nH]c(=O)n4C)nn2-c2ccccc2)[C@H](c2cnc(F)c(F)c2)O1` [Compound I-258], for which the IC50 under setting [2] is 0.48 nM.

For `COCCN1C[C@H](NC(=O)Nc2c(C)c(-c3cnc(OC)nc3)nn2-c2ccccc2)[C@@H](c2cnc(F)c(F)c2)O1` [Compound I-263], the IC50 under setting [4] was 100 to 1000 nM.

For `COCCN1C[C@@H](NC(=O)Nc2c(C)c(-c3cnc(N=S(C)(C)=O)nc3)nn2-c2ccccc2)[C@H](c2ccc(F)c(F)c2)O1` [Compound I-268], the IC50 under setting [2] was 0.55 nM.

As for `CNC(=O)c1cc(-c2nn(-c3ccccc3)c(NC(=O)N[C@@H]3C[C@@H](CCOC)O[C@H]3c3ccnc(F)c3)c2C)cn(C)c1=O` [Compound I-271], the IC50 under setting [4] was less than 100 nM.

As for `COCC[C@@H]1C[C@@H](NC(=O)Nc2c(C)c(-c3cc(C(=O)NC4CCOCC4)c(=O)n(C)c3)nn2-c2ccccc2)[C@H](c2ccnc(F)c2)O1` [Compound I-272], the IC50 under setting [4] was less than 100 nM.

For the compound `COCC[C@@H]1C[C@@H](NC(=O)Nc2c(C)c(-c3cnc(OC)nc3)nn2-c2ccccc2)[C@H](c2ccnc(F)c2)O1` [Compound I-273], under setting [2], the IC50 is 4.7 nM.

With `COCC[C@@H]1C[C@@H](NC(=O)Nc2c(C)c(-c3cnc4c(c3)c(C)nn4C)nn2-c2ccccc2)[C@H](c2ccnc(F)c2)O1` [Compound I-274], under setting [4], the IC50 was less than 100 nM.
